Measured values reported in patent US8962608B2, “Cycloalkylnitrile pyrazole carboxamides as janus kinase inhibitors” (Merck Sharp & Dohme Corp., priority 2011, dated 2015).
Read-outs that look alike come from different tables or passages of the source.

Experiments:
[1] = molecular target: T1, JAK1 (recombinant purified GST-tagged catalytic domain) (Homo sapiens (Human), UniProt P23458);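 note: biochemical assay with HTRF read-out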
[2] = molecular target: T1, JAK1 (recombinant purified GST-tagged catalytic domain); assay: biochemical
[3] = molecular target: JAK2 (recombinant purified GST-tagged catalytic domain) (Homo sapiens (Human), UniProt O60674); assay: biochemical;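 note: biochemical JAK kinase assay with HTRF detection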
JAK2 (recombinant purified GST-tagged catalytic domain), sequence (O60674 849-1124): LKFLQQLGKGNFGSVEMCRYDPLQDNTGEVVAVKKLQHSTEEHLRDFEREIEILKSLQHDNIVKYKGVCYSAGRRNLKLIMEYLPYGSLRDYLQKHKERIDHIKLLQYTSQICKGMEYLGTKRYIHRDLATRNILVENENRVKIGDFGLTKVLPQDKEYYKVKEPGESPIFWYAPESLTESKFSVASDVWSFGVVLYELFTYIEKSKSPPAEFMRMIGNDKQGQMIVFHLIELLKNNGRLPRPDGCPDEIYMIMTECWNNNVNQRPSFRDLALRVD

T1 sequence (P23458 875-1153): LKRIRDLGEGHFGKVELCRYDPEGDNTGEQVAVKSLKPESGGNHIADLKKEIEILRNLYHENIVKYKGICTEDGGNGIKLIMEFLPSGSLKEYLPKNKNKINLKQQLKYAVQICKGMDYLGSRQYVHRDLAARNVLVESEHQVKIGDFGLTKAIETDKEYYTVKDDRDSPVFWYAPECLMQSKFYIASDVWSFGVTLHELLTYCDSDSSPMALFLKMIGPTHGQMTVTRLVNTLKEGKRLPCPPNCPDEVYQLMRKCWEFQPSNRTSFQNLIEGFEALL

Row | Compound | IC50 [2] | IC50 [3] | IC50 [1]
1 | CC(O)(c1ccc(Nc2nn([C@H]3CCCC[C@@H]3C#N)cc2C(N)=O)cn1)C(F)F (single isomer, unassigned) [Example 17-40, 1-[(1S,2S or 1R,2R)-2-cyanocyclohexyl]-3-({6-[(1R or 1S)-2,2-difluoro-1-hydroxy-1-methylethyl]pyridin-3-yl}amino)-1H-pyrazole-4-carboxamide] | – | – | 0.24 nM
2 | N#Cc1ccc(Nc2nn([C@H]3CC[C@@H](O)C[C@@H]3C#N)cc2C(N)=O)cc1 (single isomer, unassigned) [Example 25-4, 1-[(1S,2S,4R or 1R,2R,4S)-2-cyano-4-hydroxycyclohexyl]-3-[(4-cyanophenyl)amino]-1H-pyrazole-4-carboxamide] | 0.55 nM | 3 nM | –
3 | N#C[C@H]1CCCC[C@@H]1n1cc(C(N)=O)c(Nc2ccc(S(=O)(=O)NCc3ccc(Cl)cc3)cc2)n1 (single isomer, unassigned) [Example 17-90, 3-({4-[(4-chlorobenzyl)sulfamoyl]phenyl}amino)-1-[(1R,2R or 1S,2S)-2-cyanocyclohexyl]-1H-pyrazole-4-carboxamide] | 1 nM | 4 nM | –
4 | CC(C)(C(=O)O)c1ccc(Nc2nn([C@@H]3CCCC[C@H]3C#N)cc2C(N)=O)cc1 (single isomer, unassigned) [Example 17-43, 2-[4-({4-carbamoyl-1-[(1R,2R or 1S,2S)-2-cyanocyclohexyl]-1H-pyrazol-3-yl}amino)phenyl]-2-methylpropanoic acid] | 0.12 nM | 7 nM | –
5 | N#C[C@H]1C[C@@H](O)CC[C@@H]1n1cc(C(N)=O)c(Nc2ccc(C(F)(F)F)cc2)n1 (single isomer, unassigned) [Example 33-4, 1-[(1S,2S,4S or 1R,2R,4R)-2-cyano-4-hydroxycyclohexyl]-3-{[4-(trifluoromethyl)phenyl]amino}-1H-pyrazole-4-carboxamide] | 5 nM | 90 nM | –
6 | N#C[C@H]1CCCC[C@@H]1n1cc(C(N)=O)c(Nc2ccc(CN)cc2)n1 (racemic) [Example 17-45, 3-{[4-(aminomethyl)phenyl]amino}-1-[(1S,2S and 1R,2R)-2-cyanocyclohexyl]-1H-pyrazole-4-carboxamide] | 3 nM | 10 nM | –
7 | N#C[C@H]1CCCC[C@@H]1n1cc(C(N)=O)c(Nc2ccc(S(=O)(=O)NCc3ccc(C(F)(F)F)cc3)cc2)n1 (single isomer, unassigned) [Example 17-96, 1-[(1R,2R or 1S,2S)-2-cyanocyclohexyl]-3-[(4-{[4-(trifluoromethyl)benzyl]sulfamoyl}phenyl)amino]-1H-pyrazole-4-carboxamide] | 2 nM | 7 nM | –
8 | CO/N=C(\C)c1ccc(Nc2nn([C@H]3CCCC[C@@H]3C#N)cc2C(N)=O)cc1 (single isomer, unassigned) [Example 40, 1-[(1S,2S or 1R,2R)-2-Cyanocyclohexyl]-3-{[4-(N-methoxyethanimidoyl)phenyl]amino}-1H-pyrazole-4-carboxamide] | 0.35 nM | 2 nM | –
9 | N#C[C@H]1CCCC[C@@H]1n1cc(C(N)=O)c(Nc2cnc3ccc(Cl)cc3c2)n1 (single isomer, unassigned) [Example 17-60, 3-[(6-chloroquinolin-3-yl)amino]-1-[(1S,2S or 1R,2R)-2-cyanocyclohexyl]-1H-pyrazole-4-carboxamide] | 6 nM | 23 nM | –

The next lines start with results.

Row | IC50 [2] | IC50 [3] | Compound | IC50 [1]
10 | 2 nM | 27 nM | COCC(C)N(C)[C@H]1CCC(n2cc(C(N)=O)c(Nc3ccc(Cl)cc3)n2)[C@@H](C#N)C1 (single isomer, unassigned) [Example 28-240, 3-[(4-chlorophenyl)amino]-1-[(1S,2S,4S or 1R,2R,4R)-2-cyano-4-{[(1S or 1R)-2-methoxy-1-methylethyl](methyl)ami-no}cyclohexyl]-1H-pyrazole-4-carboxamide] | –
11 | 1 nM | 13 nM | N#C[C@H]1C[C@@H](N2CC(F)C2)CC[C@@H]1n1cc(C(N)=O)c(Nc2ccc(S(=O)(=O)C(F)(F)F)cc2)n1 (single isomer, unassigned) [Example 28-113, 1-[(1S,2S,4S or 1R,2R,4R)-2-cyano-4-(3-fluoroazetidin-1-yl)cyclohexyl]-3-({4-[(trifluoro-methyl)sulfonyl]phenyl}amino)-1H-pyrazole-4-carboxamide] | –
12 | 0.45 nM | 23 nM | N#C[C@H]1C[C@@H](NCC2(O)CC2)CC[C@@H]1n1cc(C(N)=O)c(Nc2ccc(C(F)(F)F)cc2)n1 (single isomer, unassigned) [Example 28-23, 1-[(1S,2S,4S or 1R,2R,4R)-2-cyano-4-{[(1-hydroxycyclo-propyl)methyl]amino}cyclo-hexyl]-3-{[4-(trifluoromethyl)phenyl]amino}-1H-pyrazole-4-carboxamide] | –
13 | 0.45 nM | 3 nM | N#C[C@H]1C[C@@H](O)CC[C@@H]1n1cc(C(N)=O)c(Nc2ccc([C@@H](O)C(F)(F)F)cc2)n1 (single isomer, unassigned) [Example 33-11, 1-[(1S,2S,4S or 1R,2R,4R)-2-cyano-4-hydroxycyclohexyl]-3-({4-[(1R or 1S)-2,2,2-trifluoro-1-hydroxyethyl]phenyl}amino)-1H-pyrazole-4-carboxamide] | –
14 | 27 nM | 186 nM | N#C[C@H]1C[C@H](NC2(C(F)(F)F)CC2)CC[C@@H]1n1cc(C(N)=O)c(Nc2ccc(Cl)cc2)n1 (single isomer, unassigned) [Example 28-227, 3-[(4-chlorophenyl)amino]-1-[(1S,2S,4R or 1R,2R,4S)-2-cyano-4-{[1-(trifluoro-methyl)cyclopropyl]a-mino}cyclohexyl]-1H-pyrazole-4-carboxamide] | –
15 | 2 nM | 47 nM | N#C[C@H]1C[C@H](N2CCC2)CC[C@@H]1n1cc(C(N)=O)c(Nc2ccc(C(F)F)nc2)n1 (single isomer, unassigned) [Example 28-50, 1-[(1S,2S,4R or 1R,2R,4S)-4-azetidin-1-yl-2-cyanocyclohexyl]-3-{[6-(difluoromethyl)pyridin-3-yl]amino}-1H-pyrazole-4-carboxamide] | –
16 | 4 nM | 24 nM | CC1(N[C@H]2CCC(n3cc(C(N)=O)c(Nc4ccccc4)n3)[C@@H](C#N)C2)COC1 (single isomer, unassigned) [Example 28-230, 1-{(1S,2S,4S or 1R,2R,4R)-2-cyano-4-[(3-methyloxetan-3-yl)amino]cyclohexyl}-3-(phenylamino)-1H-pyrazole-4-carboxamide] | –
17 | 4 nM | 216 nM | C[C@H](N[C@@H]1CC[C@H](n2cc(C(N)=O)c(Nc3ccc(Cl)cc3)n2)[C@@H](C#N)C1)C1CC1 (single isomer, unassigned) [Example 28-98, 3-[(4-chlorophenyl)amino]-1-[(1S,2S,4R or 1R,2R,4S)-2-cyano-4-{[(1S)-1-cyclopropylethyl]amino}cyclo-hexyl]-1H-pyrazole-4-carboxamide] | –
18 | 1 nM | 61 nM | CC1CN([C@H]2CC[C@H](n3cc(C(N)=O)c(Nc4ccc(C(F)(F)F)cc4)n3)[C@@H](C#N)C2)C1 (single isomer, unassigned) [Example 28-121, 1-[(1S,2S,4S or 1R,2R,4R)-2-cyano-4-(3-methylazetidin-1-yl)cyclohexyl]-3-{[4-(trifluoromethyl)phenyl]amino}-1H-pyrazole-4-carboxamide] | –
19 | 1 nM | 4 nM | N#C[C@H]1C[C@@H](N2CCC23COC3)CC[C@@H]1n1cc(C(N)=O)c(Nc2ccc(Cl)cc2)n1 (single isomer, unassigned) [Example 28-146, 3-[(4-chlorophenyl)amino]-1-[(1S,2S,4S or 1R,2R,4R)-2-cyano-4-(6-oxa-1-azaspiro[3.3]hept-1-yl)cyclohexyl]-1H-pyrazole-4-carboxamide] | –
20 | 1 nM | 16 nM | N#C[C@H]1CC(N(C2CC2)C2CC2)CC[C@@H]1n1cc(C(N)=O)c(Nc2ccc(S(=O)(=O)C(F)(F)F)cc2)n1 (single isomer, unassigned) [Example 28-181, 1-[(1S,2S or 1R,2R)-2-cyano-4-(dicyclopropylamino)cyclohexyl]-3-({4-[(trifluoro-methyl)sulfonyl]phenyl}amino)-1H-pyrazole-4-carboxamide] | –
21 | 10 nM | 111 nM | N#C[C@@H]1C[C@H](C(=O)N2CC3(COC3)C2)CC[C@H]1n1cc(C(N)=O)c(Nc2ccc(Cl)cc2)n1 (single isomer, unassigned) [Example 35-36, 3-[(4-chlorophenyl)amino]-1-[(1R,2R,4R or 1S,2S,4S)-2-cyano-4-(2-oxa-6-azaspiro[3.3]hept-6-ylcarbonyl)cyclohexyl]-1H-pyrazole-4-carboxamide] | –
22 | 0.5 nM | 2 nM | CC(C)(c1ccc(Nc2nn([C@H]3CC[C@H](O)C[C@@H]3C#N)cc2C(N)=O)cc1)C(O)C(F)(F)F (single isomer, unassigned) [Example 33-15, 1-[(1S,2S,4S or 1R,2R,4R)-2-cyano-4-hydroxycyclohexyl]-3-{[4-(3,3,3-trifluoro-(2R or 2S)-hydroxy-1,1-dimethylpropyl)phenyl]amino}-1H-pyrazole-4-carboxamide] | –
23 | 37 nM | 295 nM | N#C[C@H]1C[C@@H](C(=O)NC2CC2)CC[C@@H]1n1cc(C(N)=O)c(Nc2ccc(Cl)cc2)n1 (single isomer, unassigned) [Example 35-23, 3-[(4-chlorophenyl)amino]-1-[(1S,2S,4S or 1R,2R,4R)-2-cyano-4-(cyclopropylcarbamoyl)cyclohexyl]-1H-pyrazole-4-carboxamide] | –
24 | 4 nM | 200 nM | C[C@H](N[C@@H]1CC[C@H](n2cc(C(N)=O)c(Nc3ccc(OC(F)(F)F)cc3)n2)[C@@H](C#N)C1)C1CC1 (single isomer, unassigned) [Example 28-55, 1-[(1S,2S,4R or 1R,2R,4S)-2-cyano-4-{[(1S)-1-cyclopropylethyl]amino}cyclo-hexyl]-3-{[4-(trifluoromethoxy)phenyl]amino}-1H-pyrazole-4-carboxamide] | –
